Source: PMC8359193, “Summary of reference chemicals evaluated by the fish short‐term reproduction assay, OECD TG229, using Japanese Medaka, Oryzias latipes” (Journal of Applied Toxicology, 2021)
Entries after “also recorded” stand apart in the source; their conditions may differ.

System: Japanese medaka (Oryzias latipes)
Experiment: Fish short-term reproduction assay (FSTRA, OECD TG229), 21-day flow-through exposure
Conditions: for GSI Female / GSI Male / HSI Male / Length Male / Weight Male / HSI Female / Length Female / Weight Female: at completion of exposure; for Fertility rate (%) / Mortality (%) Female / Mortality (%) Male / Number of fertilized eggs / Number of total eggs / SSC Female / SSC Male / VTG (ng/mg of liver) Female / VTG (ng/mg of liver) Male: 21 days; for effect on fecundity (number of total eggs), in words: within the test concentrations
Summary of the method: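 Run to OECD TG229: mature NIES-R medaka pairs (3♂/3♀ per vessel, 4 vessels per treatment plus dilution water control) were dosed by continuous flow-through for 21 days. Test concentrations were spaced 2- to 5-fold. Daily spawned eggs were counted under the microscope for fertilized versus unfertilized.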

CC(=O)[C@H]1CC[C@H]2[C@@H]3CCC4=CC(=O)CC[C@]4(C)[C@H]3CC[C@]12C [P4, Progesterone]
effect on female hepatic VTG, in words (21-day exposure): no alteration
LOEC on female SSC (papillary process formation on anal fin) (21-day exposure, measured conc.): 11 µg/L
GSI Female (measured conc. 243 μg/L): 36.9%
GSI Male (measured conc. 11 μg/L): 1.20%
HSI Male (measured conc. 11 μg/L): 2.0%
Length Male (measured conc. 11 μg/L): 36.9 mm
Weight Male (measured conc. 11 μg/L): 501 mg
GSI Male (measured conc. 24 μg/L): 1.04%
HSI Male (measured conc. 24 μg/L): 1.9%
Length Male (measured conc. 24 μg/L): 36.4 mm
Weight Male (measured conc. 24 μg/L): 475 mg
GSI Male (measured conc. 64 μg/L): 1.14%
HSI Male (measured conc. 64 μg/L): 2.8%
Length Male (measured conc. 64 μg/L): 37.1 mm
Weight Male (measured conc. 64 μg/L): 465 mg
GSI Male (measured conc. 243 μg/L): 1.15%
HSI Male (measured conc. 243 μg/L): 2.1%
Length Male (measured conc. 243 μg/L): 36.9 mm
Weight Male (measured conc. 243 μg/L): 479 mg
Fertility rate (%) (measured conc. 11 μg/L): 92%
Mortality (%) Female (measured conc. 11 μg/L): 0%
Mortality (%) Male (measured conc. 11 μg/L): 0%
Number of fertilized eggs (measured conc. 11 μg/L): 17
Number of total eggs (measured conc. 11 μg/L): 18 ± 3.8 /female/day
SSC Female (measured conc. 11 μg/L): 11 ± 8.9
SSC Male (measured conc. 11 μg/L): 109 ± 14
VTG (ng/mg of liver) Female (measured conc. 11 μg/L): 746 ± 419 ng/mg of liver
VTG (ng/mg of liver) Male (measured conc. 11 μg/L): 33 ± 29 ng/mg of liver
Fertility rate (%) (measured conc. 24 μg/L): 91%
Mortality (%) Female (measured conc. 24 μg/L): 8%
Mortality (%) Male (measured conc. 24 μg/L): 0%
Number of fertilized eggs (measured conc. 24 μg/L): 16
Number of total eggs (measured conc. 24 μg/L): 17 ± 4.0 /female/day
SSC Female (measured conc. 24 μg/L): 21 ± 5.9
SSC Male (measured conc. 24 μg/L): 108 ± 20
VTG (ng/mg of liver) Female (measured conc. 24 μg/L): 818 ± 270 ng/mg of liver
VTG (ng/mg of liver) Male (measured conc. 24 μg/L): 29 ± 22 ng/mg of liver
Fertility rate (%) (measured conc. 64 μg/L): 87%
Mortality (%) Female (measured conc. 64 μg/L): 8%
Mortality (%) Male (measured conc. 64 μg/L): 0%
Number of fertilized eggs (measured conc. 64 μg/L): 15
Number of total eggs (measured conc. 64 μg/L): 16 ± 6.5 /female/day
SSC Female (measured conc. 64 μg/L): 35 ± 8.9
SSC Male (measured conc. 64 μg/L): 101 ± 13
VTG (ng/mg of liver) Female (measured conc. 64 μg/L): 1,008 ± 445 ng/mg of liver
VTG (ng/mg of liver) Male (measured conc. 64 μg/L): 37 ± 27 ng/mg of liver
Fertility rate (%) (measured conc. 243 μg/L): 2.9%
Mortality (%) Female (measured conc. 243 μg/L): 83%
Mortality (%) Male (measured conc. 243 μg/L): 50%
Number of fertilized eggs (measured conc. 243 μg/L): 0.2
Number of total eggs (measured conc. 243 μg/L): 1.0 ± 2.3 /female/day
SSC Female (measured conc. 243 μg/L): 32 ± 21
SSC Male (measured conc. 243 μg/L): 100 ± 10
VTG (ng/mg of liver) Female (measured conc. 243 μg/L): 899 ± 139 ng/mg of liver
VTG (ng/mg of liver) Male (measured conc. 243 μg/L): 37 ± 36 ng/mg of liver
effect on fecundity (number of total eggs), in words (21-day exposure): significant difference from the control

CCCCCCCCCCCCOS(=O)(=O)[O-].[Na+] [SDS, Sodium dodecyl sulfate]
effect on fertility rate, in words (21-day exposure): significant decrease; also recorded: significant reduction
effect on male hepatic VTG, in words (21-day exposure): no VTG induction
GSI Female (measured conc. 0.748 mg/L): 10.9%
HSI Female (measured conc. 0.748 mg/L): 4.8%
Length Female (measured conc. 0.748 mg/L): 35.6 mm
Weight Female (measured conc. 0.748 mg/L): 547 mg
GSI Female (measured conc. 2.46 mg/L): 10.8%
HSI Female (measured conc. 2.46 mg/L): 4.8%
Length Female (measured conc. 2.46 mg/L): 36.6 mm
Weight Female (measured conc. 2.46 mg/L): 573 mg
GSI Female (measured conc. 10.0 mg/L): 11.0%
HSI Female (measured conc. 10.0 mg/L): 4.9%
Length Female (measured conc. 10.0 mg/L): 36.1 mm
Weight Female (measured conc. 10.0 mg/L): 573 mg
GSI Male (measured conc. 0.748 mg/L): 0.88%
HSI Male (measured conc. 0.748 mg/L): 2.3%
Length Male (measured conc. 0.748 mg/L): 36.7 mm
Weight Male (measured conc. 0.748 mg/L): 544 mg
GSI Male (measured conc. 2.46 mg/L): 0.91%
HSI Male (measured conc. 2.46 mg/L): 2.0%
Length Male (measured conc. 2.46 mg/L): 36.7 mm
Weight Male (measured conc. 2.46 mg/L): 519 mg
GSI Male (measured conc. 10.0 mg/L): 1.17%
HSI Male (measured conc. 10.0 mg/L): 2.2%
Length Male (measured conc. 10.0 mg/L): 35.6 mm
Weight Male (measured conc. 10.0 mg/L): 493 mg
Fertility rate (%) (measured conc. 0.748 mg/L): 95%
Mortality (%) Female (measured conc. 0.748 mg/L): 0%
Mortality (%) Male (measured conc. 0.748 mg/L): 0%
Number of fertilized eggs (measured conc. 0.748 mg/L): 27
Number of total eggs (measured conc. 0.748 mg/L): 29 ± 3.9 /female/day
SSC Female (measured conc. 0.748 mg/L): 0 ± 0
SSC Male (measured conc. 0.748 mg/L): 107 ± 8.7
VTG (ng/mg of liver) Female (measured conc. 0.748 mg/L): 3,780 ± 305 ng/mg of liver
VTG (ng/mg of liver) Male (measured conc. 0.748 mg/L): 3.0 ± 4.2 ng/mg of liver
Fertility rate (%) (measured conc. 2.46 mg/L): 93%
Mortality (%) Female (measured conc. 2.46 mg/L): 0%
Mortality (%) Male (measured conc. 2.46 mg/L): 0%
Number of fertilized eggs (measured conc. 2.46 mg/L): 27
Number of total eggs (measured conc. 2.46 mg/L): 30 ± 2.7 /female/day
SSC Female (measured conc. 2.46 mg/L): 0 ± 0
SSC Male (measured conc. 2.46 mg/L): 112 ± 11
VTG (ng/mg of liver) Female (measured conc. 2.46 mg/L): 4,930 ± 189 ng/mg of liver
VTG (ng/mg of liver) Male (measured conc. 2.46 mg/L): 6.6 ± 11 ng/mg of liver
Fertility rate (%) (measured conc. 10.0 mg/L): 85%
Mortality (%) Female (measured conc. 10.0 mg/L): 0%
Mortality (%) Male (measured conc. 10.0 mg/L): 0%
Number of fertilized eggs (measured conc. 10.0 mg/L): 25
Number of total eggs (measured conc. 10.0 mg/L): 30 ± 1.8 /female/day
SSC Female (measured conc. 10.0 mg/L): 0 ± 0
SSC Male (measured conc. 10.0 mg/L): 110 ± 3.5
VTG (ng/mg of liver) Female (measured conc. 10.0 mg/L): 4,520 ± 906 ng/mg of liver
VTG (ng/mg of liver) Male (measured conc. 10.0 mg/L): 1.0 ± 0.5 ng/mg of liver
effect on fecundity (number of total eggs), in words (21-day exposure): no significant effect
